# Experimental data as given in patent US4826845A, “3(2H)-pyridazinones and pharmaceutical compositions thereof” (Richter Gedeon Vegyeszeti Gyar T.R., priority 1985, dated 1989).
# Counter-ions that a name gives are not always drawn.
# Experiments:
# [1] = tested on: pressor (blood pressure increasing) effect of epinephrine; assay: Inhibition of the pressor effect of epinephrine; conditions: in vivo
# anaesthetized cats [2] = assay: Measurement of the hypotensive effect on anaesthetized cats (i.v. screening); type: in vivo, cat
# Experimental: A tube was introduced into the trachea of cats anaesthetized by the intraperitoneal (i.p.) administration of 35 mg/kg of sodium pentobarbital whereby the spontaneous breathing was supported. On the one side of the animals, the femoral artery and vein were exposed and a polyethylene cannula was introduced in both vessels each. The substances to be tested were administered through the venous cannula. The mean arterial blood pressure was measured by connecting the arterial cannula with a Statham P 23 Db pressure transducer and electromanometer.
# As a first screening dose, 5 mg/kg of the compounds to be tested were intravenously (i.v.) administered.
# Acute toxicity in mice = conditions: mouse, in vivo
# Text: (§1) Male and female CFY rats and mice were used.
# SH rats = assay: Subacute treatment of SH rats; type: in vivo, rat
# Experimental: The systolic blood pressure and heart rate of the animals were indirectly measured by using the tail-cuff method by means of a 5- channel automatized equipment.
# The subacute experiments were carried out on SH rats by administering daily twice a 3 mg/kg intraperitoneal dose for 14 days.
# Acute toxicity in rats = conditions: rat, in vivo
# Text: as §1
# conscious SH rats = assay: Antihypertensive effect on conscious, spontaneously hypertensive (SH) rats after oral administration; type: in vivo, rat
# Text: The systolic blood pressure was indirectly measured by the tail-cuff method. The compounds to be tested were introduced orally (p.o.) to the animals. The blood pressure measurements were made by using a 5-channel automatized equipment.
# renal artery = assay: Renal arterial vascular resistance in anaesthetized dogs; type: in vivo, Beagle dog
# Experimental: (§2) Beagle dogs of both sexes were anaesthetized by the intravenous administration of 40 mg/kg of sodium pentobarbital. A cannula was introduced to the femoral artery and vein each on one side for the intravenous administration of the compounds to be tested as well as for measuring the blood pressure.
# In an other series of these experiments, the substances were administered through a duodenal tube. Similarly to the experiments carried out on cats, the systemic arterial blood pressure was measured by using an electromanometer and the cardiotachometer was triggered by the heart rate wave sign.
# The renal artery on one side was exposed retroperitoneally and fitted with an electromagnetic flow-meter head for measuring the blood flow of the renal arterial vascular bed and for determining the local vascular resistance.
# [3] = tested on: adrenergic receptor-mediated calcium channel; assay: Calcium-antagonism on isolated portal vein: adrenergic receptor-mediated calcium channel; type: cell-based; conditions: rat portal vein, 1×10^-5 mole norepinephrine, 37° C.; read-out: Inhibition of the calcium channel, adrenergic receptor-mediated, IC50
# Experimental: The calcium-antagonism of the compounds of the invention was studied on an isolated vessel preparation based on the work of M. Fiol de Cuneo et al. [Arch. Int. Pharmacodyn.
# Male CFY rats with a body-weight of 150 to 200 g were bled by decapitation and the portal vein was immediately prepared starting from the hepatic portal. The vessel was longitudinally incised, bound to a transducer registering the contractions and incubated under a tension of 1 g at 37° C. in a calcium-free Krebs-Ringer bicarbonate solution aerated with carbogen. After an equilibration lasting for 30 minutes, the functioning of the receptor-mediated and the K^+ -depolarisation-mediated calcium channels, respectively, were investigated.
# All measurements were carried out at 37° C. while bubbling through carbogen.
# anaesthetized cats [4] = assay: Hypotensive and heart rate effects on anaesthetized cats after intravenous or intraduodenal administration; type: in vivo, cat
# Experimental: The cats were anaesthetized by intraperitoneally administering 35 mg/kg of sodium pentobarbital while promoting the spontaneous respiration by the introduction of a trachea cannula. On one side, the femoral vessels are cannulated. The cannula introduced to the femoral vein was used for the intravenous administration of the compounds to be tested. The arterial cannula was connected with a Hellige electromanometer by using a Statham P 23 Db transducer for measuring the mean arterial pressure. The heart rate was continuously registered by means of a cardiotachometer triggered by the pulse wave sign of the electromanometer.
# In an other series of these experiments, the compound to be tested was administered through a duodenal tube. The compound of Example 3 (or 12) was used in intravenous doses of 0.5, 1.0 and 5.0 mg/kg as well as in intraduodenal doses of 1.25, 5.0 and 10.0 mg/kg.
# [5] = tested on: postsynaptic alpha1 receptor; assay: Kinetic analysis on rabbit aorta strip preparation: postsynaptic alpha1 receptor antagonism; type: cell-based
# Experimental: Male rabbits with a body-weight of 3 to 3.5 kg were used for these experiments. […] A dose response curve was plotted by using norepinephrine and a dose selected from the steepest interval of the curve was added repeatedly to the bath until obtaining equal responses. Then, the compound to be tested was added and after 5 minutes, the dose series of norepinephrine was repeated. The extent of the inhibition was expressed as percentage.
# anaesthetized dogs = assay: Hypotensive and heart rate effects on anaesthetized dogs after intravenous or intraduodenal administration; type: in vivo, Beagle dog
# Experimental: as §2
# In an other series of these experiments, the substances were administered through a duodenal tube. Similarly to the experiments carried out on cats, the systemic arterial blood pressure was measured by using an electromanometer and the cardiotachometer was triggered by the heart rate wave sign. […]
# [6] = ip, female, i.p., read-out: LD50 i.p.
# [7] = ip, male, i.p., read-out: LD50 i.p.
# [8] = po, female, p.o., read-out: LD50 p.o.
# [9] = po, male, p.o., read-out: LD50 p.o.
smiles,measurement,setting,value
"O=c1cccnn1CCCNCC1COc2ccccc2O1 (stereo not shown) [Example 3 (or 12), 2-[3-(benzo[1,4]dioxan-2-yl-methylamino)-1-propyl]-3(2H)-pyridazinone hydrochloride]",inhibition of the pressor effect of epinephrine (in words),[1],significant inhibition
same,Mean arterial pressure decrease,"anaesthetized cats [2]; anaesthetized cats, 5.0 mg/kg i.v.",-95 Hgmm
same,blood pressure lowering action (in words),"anaesthetized cats [2]; intravenous, summary of Table 1",particularly expressed
same,LD50 at 336 h,Acute toxicity in mice; [6],160 mg/kg
same,LD50 at 336 h,Acute toxicity in mice; [7],160 mg/kg
same,LD50 at 336 h,Acute toxicity in mice; [8],200 mg/kg
same,LD50 at 336 h,Acute toxicity in mice; [9],300 mg/kg
same,effect on the following days; tachyphylaxia (in words),SH rats; 3 mg/kg i.p. twice daily for 14 days,not altered on the following days of treatment. No signs of tachyphylaxia were observed
same,maximum antihypertensive effect,"SH rats; 3 mg/kg i.p. twice daily, 10th day",22%
same,LD50 at 336 h,Acute toxicity in rats; [6],97.8 mg/kg
same,LD50 at 336 h,Acute toxicity in rats; [7],116 mg/kg
same,LD50 at 336 h,Acute toxicity in rats; [8],400 mg/kg
same,LD50 at 336 h,Acute toxicity in rats; [9],600 mg/kg
same,Decrease in the systolic blood pressure,conscious SH rats; 6.25 mg/kg p.o.,-18%
same,Decrease in the systolic blood pressure,conscious SH rats; 12.5 mg/kg p.o.,-25%
same,Decrease in the systolic blood pressure,conscious SH rats; 25 mg/kg p.o.,-32%
same,peripheral vasodilatory action in the renal vascular bed compared with prazosine (in words),renal artery,reached or eventually surpassed the activity of prazosine
same,peripheral vasodilatory action in the renal vascular bed compared with verapamil (in words),renal artery,stronger effects than verapamil
same,decrease in resistance of the renal artery,renal artery; 1 mg/kg i.v.,about 40%
same,decrease in resistance of the renal artery,renal artery; 1.0 mg/kg intraduodenal,about 40%
same,IC50,[3],400 nM
same,duration of hypotension,anaesthetized cats [4]; 0.5 mg/kg i.v.,60 min
same,half-life of hypotension,anaesthetized cats [4]; 0.5 mg/kg i.v.,about 30 minutes
same,heart rate effect (in words),anaesthetized cats [4]; 0.5 mg/kg i.v.,accompanied by bradycardia
same,hypotension,anaesthetized cats [4]; 0.5 mg/kg i.v.,50%
same,"maximum of the hypotension, intravenous versus intraduodenal",anaesthetized cats [4]; 1.0 mg/kg i.v. versus 1.25 mg/kg intraduodenal,nearly equal
same,decrease in the blood pressure,anaesthetized cats [4]; 1.25 mg/kg intraduodenal,50%
same,duration of hypotension (detected up to),anaesthetized cats [4]; 1.25 mg/kg intraduodenal,up to 2 hours
same,time of development of hypotension,anaesthetized cats [4]; 1.25 mg/kg intraduodenal,≤ 15 min
same,heart rate effect (in words),anaesthetized cats [4]; intraduodenal,significantly diminished
same,pA2,"[5]; negative logarithm of the molar antagonist concentration inhibiting the agonist to 50%, norepinephrine agonist, 5 min",7.26
same,Slope of the curve,"[5]; rabbit aorta, norepinephrine",-1.26
same,decrease in the systemic arterial blood pressure,anaesthetized dogs; 1.0 mg/kg i.v.,50%
same,half-life of the effect,anaesthetized dogs; 1.0 mg/kg i.v.,30 min
same,heart rate effect (in words),anaesthetized dogs; 1.0 mg/kg i.v.,"bradycardia was observed during the first 5 minutes, then the alteration was not significant"
same,decay of the hypotensive effect (in words),anaesthetized dogs; 1.0 mg/kg intraduodenal,only halved at the end of the first hour
same,decrease in the systemic arterial blood pressure,anaesthetized dogs; 1.0 mg/kg intraduodenal,30%
same,tachycardia,anaesthetized dogs; 1.0 mg/kg intraduodenal,about 20%
same,time maximum effect remained constant,anaesthetized dogs; 1.0 mg/kg intraduodenal,30 min
same,time of maximum effect,anaesthetized dogs; 1.0 mg/kg intraduodenal,5 min
same,hypotensive activity compared with verapamil (in words),anaesthetized dogs; any of the two routes,higher than that of verapamil
same,hypotensive activity compared with prazosine (in words),anaesthetized dogs; intraduodenal,reached that of prazosine
same,hypotensive effect (in words),anaesthetized dogs; intravenous and intraduodenal,strong hypotensive effect
